Source: US20120149715A1, “COMPOUNDS AND METHODS FOR THE TREATMENT OF VIRAL INFECTIONS” (priority 2010, published 2012)

Tested on: A/Vietnam/1194/04 H5N1 virus
Set-up: species or system BALB/c mice
Conditions: mouse, in vivo

Nucleozin
animals that survived for more than 21 days: 90% | survival rate after inoculation compared with untreated controls (ip): significantly higher survival rate
